Laboratory results: ChEMBL document CHEMBL5614416, “Discovery of novel thiophene[3,2-d]pyrimidine-based tubulin inhibitors with enhanced antitumor efficacy for combined use with anti-pd-l1 immunotherapy in melanoma” (Eur J Med Chem, 2024)
The source made the active and inactive calls. The rule behind the calls is not given here.

Assays:
[1] = test system: HepG2; test: Antiproliferative activity against human HepG2 cells incubated for 48 hrs by MTT assay; assay type: functional, cell-based; conditions: HepG2, 48 h
[2] = test system: NCI-H23; test: Antiproliferative activity against human NCI-H23 cells incubated for 48 hrs by MTT assay; assay type: functional, cell-based; conditions: NCI-H23, 48 h
[3] = test system: MCF7; test: Antiproliferative activity against human MCF7 cells incubated for 48 hrs by MTT assay; assay type: functional, cell-based; conditions: MCF7, 48 h
[4] = test system: HeLa; test: Antiproliferative activity against human HeLa cells incubated for 48 hrs by MTT assay; assay type: functional, cell-based
[5] = test system: B16-F10; test: Antiproliferative activity against mouse B16-F10 cells incubated for 48 hrs by MTT assay; assay type: functional, cell-based; conditions: B16-F10, 48 h
[6] = test system: HCT-116; test: Antiproliferative activity against human HCT-116 cells incubated for 48 hrs by MTT assay; assay type: functional, cell-based; conditions: HCT-116, 48 h
[7] = test system: B16-F10; test: Antitumor activity against mouse B16-F10 cells xenografted in C57 mouse at 7 mg/kg, ip qd for 12 days relative to control; assay type: functional; conditions: B16-F10, 288 h, time 12 day, read-out: TGI
[8] = Toxicity in C57 mouse xenografted with mouse B16-F10 cells assessed as body weight change at 7 mg/kg, ip qd for 12 days; assay type: organism-based; conditions: in vivo, 288 h, time 12 day
[9] = test system: B16-F10; test: Antitumor activity against mouse B16-F10 cells xenografted in C57 mouse assessed as suppression of tumor growth at 7 mg/kg, ip qd for 12 days; assay type: functional, organism-based; conditions: time 12.0 day

IC50 [1] [nM]	IC50 [2] [nM]	IC50 [3] [nM]	IC50 [4] [nM]	IC50 [5] [nM]	IC50 [6] [nM]	Compound	inhibition in vivo at 7 mg/kg [7] [%]	Activity [8]	Activity [9]
18.8	9.37	1.4	18.8	30	3.12	COc1ccc(N(C)c2nc(C)nc3ccsc23)cc1			
> 100	> 100	> 100	> 100	> 100	> 100	COc1ccc(N(C)c2nc(C)nc3ccsc23)cc1C(F)(F)F			
> 100	> 100	> 100	> 100	> 100	> 100	COc1ccc(N(C)c2nc(C)nc3ccsc23)cc1OC			
18.5	18.8	4.68	20	6.25	1.56	COc1ccc(N(C)c2nc(C)nc3ccsc23)cc1[N+](=O)[O-]			
> 100	> 100	> 100	> 100	> 100	> 100	Cc1nc(N(C)c2ccc(Cl)c(Cl)c2)c2sccc2n1			
> 100	> 100	> 100	> 100	> 100	> 100	COc1cccc(N(C)c2nc(C)nc3ccsc23)c1			
> 100	> 100	> 100	> 100	> 100	> 100	Cc1cccc(N(C)c2nc(C)nc3ccsc23)c1			

More lines, now with the values behind:

Compound	IC50 [1] [nM]	IC50 [2] [nM]	IC50 [3] [nM]	IC50 [4] [nM]	IC50 [5] [nM]	IC50 [6] [nM]	inhibition in vivo at 7 mg/kg [7] [%]	Activity [8]	Activity [9]
Cc1nc(N(C)c2ccc(C(C)C)cc2)c2sccc2n1	> 100	> 100	> 100	> 100	> 100	> 100			
Cc1nc(N(C)c2cc(Cl)cc(Cl)c2)c2sccc2n1	> 100	> 100	> 100	> 100	> 100	> 100			
COc1cc(OC)cc(N(C)c2nc(C)nc3ccsc23)c1	> 100	> 100	> 100	> 100	> 100	> 100			
Cc1nc(N(C)c2cccc(OC(F)(F)F)c2)c2sccc2n1	> 100	> 100	> 100	> 100	> 100	> 100			
COc1cc(N(C)c2nc(C)nc3ccsc23)cc(OC)c1OC	> 100	> 100	> 100	> 100	> 100	> 100			
Cc1c(COc2cc(OCc3cccc(C#N)c3)c(CNC(C)(C)C(=O)O)cc2Cl)cccc1-c1ccccc1							43.9	Non-Toxic	Active
Cc1nc(N(C)c2cccc3ccccc23)c2sccc2n1	> 100	> 100	> 100	> 100	> 100	> 100			
Cc1nc(N(C)c2ccc3ccccc3c2)c2sccc2n1	18	18.8	20	9	15.6	0.58			
Cc1nc(N(C)c2cccc(C(F)(F)F)c2)c2sccc2n1	> 100	> 100	> 100	> 100	> 100	> 100			
Cc1ccc(N(C)c2nc(C)nc3ccsc23)cc1	> 100	> 100	> 100	> 100	> 100	> 100			
COc1cc2c(c(OC)c1OC)-c1ccc(OC)c(=O)cc1[C@@H](NC(C)=O)CC2 [COLCHICINE]	5	3.1		9.35	18.8	9.37			
CN(c1ccc2c(ccn2C)c1)c1ncnc2ccsc12	> 100	> 100	> 100	> 100	> 100	> 100			
COc1ccccc1N(C)c1nc(C)nc2ccsc12	> 100	> 100	> 100	> 100	> 100	> 100			
Cc1nc(N(C)c2ccccc2C)c2sccc2n1	> 100	> 100	> 100	> 100	> 100	> 100			
Cc1nc(N(C)c2ccc(C(F)(F)F)cc2)c2sccc2n1	> 100	> 100	> 100	> 100	> 100	> 100			
Cc1nc(N(C)c2ccc(OC(C)C)cc2)c2sccc2n1	> 100	> 100	> 100	> 100	> 100	> 100			
